Where a SMILES comes first, the peptide text is derived from it. The star is where a group is joined. Fmoc = O=C(OCC1c2ccccc2-c2ccccc21)*

As a reminder, the fraction remaining is the share of the starting amount still present when the sample was taken.

In data set [1] the test system is chymotrypsin.
Procedure: (§1) Each substrate was dissolved to 0.5 mg/mL in 10% DMSO, 100 mM Tris, 100 mM CaCl2, pH 8.0. Either trypsin or chymotrypsin was dissolved to 1 mg/mL in 0.001M HCI. At t=0, 10λ of enzyme or 0.001M HCI was added to 200λ of either the peptoid or peptide solution and incubated at 37°C. At the appropriate times, 50λ was removed and quenched with 50λ of 20% HOAc and assayed by HPLC on a C4 column with detection at 280 nm. The data below is given in percent area remaining on parent peak.
Data set [2] relates to chymotrypsin. Description: in vitro. The note with it: isolated enzyme chymotrypsin, pH 8.
Procedure: as §1
The subject of data set [3] is chymotrypsin. In words: Proteolysis of peptoids and peptides by chymotrypsin (RP-HPLC). The settings on record: chymotrypsin (isolated protease) in Tris buffer, pH 8.
Procedure: as §1
Another data set is described as follows: physchem. The settings on record: buffer or solvent, pH 8.
For data set [4], the system named is trypsin. In words: Proteolysis of peptoids and peptides by trypsin (RP-HPLC). The note with it: trypsin (isolated protease) in Tris buffer, pH 8.
Procedure: as §1
Data set [5] deals with trypsin.
Procedure: as §1

Procedure for physchem: as §1

With `CC(C)C[C@H](NC(=O)OCC1c2ccccc2-c2ccccc21)C(=O)N[C@@H](CC(=O)O)C(=O)N[C@@H](Cc1ccccc1)C(=O)N[C@@H](CO)C(=O)N[C@@H](CCCCN)C(=O)NCC(=O)O` [PEPTIDE, FMOC-LDFSKG-OH] (Fmoc-LDFSKG-OH), the “cleavage at the second site” value in the data set with chymotrypsin [1] is given as “not cbmpletely cleaved”. In addition, in the data set with chymotrypsin [2], the metabolised at 10 min, 0.476 mg/mL was ~60% and the amount remaining at 3 h, 0.476 mg/mL stood at 0%. In addition, in the data set with chymotrypsin [3], the share remaining at 5 min, 0.476 mg/mL is 75% and the share remaining at 10 min, 0.476 mg/mL came to 41%. For the same compound, in “physchem”, the amount remaining at 5 min, 0.476 mg/mL stood at 100%; the fraction remaining at 10 min, 0.476 mg/mL worked out at 100%; the fraction remaining at 3 h, 0.476 mg/mL was < 100%. Moreover, in the data set on trypsin [4], the share remaining at 5 min, 0.476 mg/mL was 0%; the amount remaining at 10 min, 0.476 mg/mL worked out at 0%; the amount remaining at 3 h, 0.476 mg/mL was 0%. Moreover, the “time in which cleavage was complete” value in the data set with trypsin [5] was ≤ 5 min.

(Values after EP0535155B1, “LIBRARIES OF MODIFIED PEPTIDES WITH PROTEASE RESISTANCE” (CHIRON CORPORATION, priority 1990, dated 2002).)
